{"source": "patent US12458809B2", "about": "“Method and system of using plasma discharge tube for sensitization of cancer cells” (The George Washington University, priority 2019, dated 2025)", "key": {"A172 glioblastoma cells": {"system": "A172 glioblastoma cells", "test": "MTT cell viability assay, A172 glioblastoma cells, TMZ with or without plasma discharge tube electro-magnetic field", "type": "cell-based, human", "experimental": "(§1) In one experiment conducted using the test system 10 in FIGS. 1A-1B, human glioblastoma cancer cell lines U87 and A172 as well as […] E6/E7 were provided from the ATCC (City of Manassas, VA), and were grown in Dulbecco's Modified Eagle Medium (Gibco) supplemented with 10% fetal bovine serum (Atlanta Biologicals) and 1% penicillin-streptomycin solution (Invitrogen) under standard cell culture conditions (humidified atmosphere with 5% CO2 at 37° C.). After one passage, 10,000 cells in 100 μL medium were seeded into 96-well plates such as the plate 134 in FIG. 1A. The cells were cultured for 24 hours before the experiment was performed to ensure proper cell attachment and stability.\n(§2) Cell viability was analyzed by using an MTT assay available from Sigma-Aldrich, which is a colorimetric assay for analyzing the cell metabolic activity. The MTT protocol is based on NAD(P)H-dependent cellular oxidoreductases, which reduces the water-soluble MTT ((3-(4,5-dimethylthiazol-2-yl)-2,5-diphenyltetrazolium bromide) to an insoluble formazan product. Cells with active metabolism can transform MTT into formazan; however, dead cells cannot transform MTT into formazan and will not show detectable signal. The measured absorbance at OD 590 nm is proportional to the number of viable cells.\n(§3) Following treatment with an electro-magnetic field generated from the example plasma tube, the cells were cultured for 72 hours. A total of 100 μL MTT solution (7 mg Thiazolyl Blue Tetrazolium Blue in 10 ml DMEM) was added to each well. Cells were cultured for an additional 3 hours at 37° C., and then the MTT solution was aspirated and a 100 μL solvent was added to dissolve the formazan crystals. The result was recorded with a Synergy H1 Hybrid Multi-Mode Microplate Reader at 570 nm. For each condition (treatment time, voltage, drug concentration), the experiments were performed in triplicates and were repeated independently 3 times.\nIn this example, four different experimental cell groups were used. The first experimental group was the control group. […]"}, "U87 glioblastoma cells": {"system": "U87 glioblastoma cells", "test": "MTT cell viability assay, U87 glioblastoma cells, TMZ with or without plasma discharge tube electro-magnetic field", "type": "cell-based, human", "conditions": "for inhibition of the growth of U87 cells: then 180 μM TMZ", "experimental": "as §1, §2, §3\nIn this example, four different experimental cell groups were used. The first experimental group was the control group. For each well of the plates for the control group, the cell culture media was removed before the treatment applied to the other experimental groups. After the treatment was applied to the other experimental groups, 100 μL, fresh cell culture media for each well was added to the cells of the control group.\nThe second experimental group is the tube-only group. For the tube-only group, the cell culture media was removed before the treatment as well. After that, the cells were treated by placing the plate 134 on the side of the discharge tube 100 in FIG. 1A, with a distance of 1 and 5 mm between the plate 134 and the tube 100. The cells in the plate were exposed to the electro-magnetic field for 1, 4 and 7 minutes. 100 μL fresh cell culture media for each well was added to the cells after the treatment.\nThe third experiment group is the drug-only group. For the drug-only group, the cell culture media was removed before the treatment via electro-magnetic field applied to the other experimental groups. After the treatment of the other groups, 100 μL fresh cell culture media with 180, 250, 320 μM of TMZ for each well was added to the cells.\nThe last experimental group is a combination group. For the combination group, the cell culture media was removed before the treatment as well. Then, the cells were treated by placing the plate 134 on the side of the discharge tube 100 at a distance of 1 and 5 mm. The electro-magnetic field was applied for 1, 4 and 7 minutes. Following the treatment, 100 μL, fresh cell culture media with 180, 250, and 320 μM of TMZ for each well was added to the cells."}, "hTERT/E6/E7 cells": {"system": "hTERT/E6/E7 cells", "test": "MTT cell viability assay, non-cancerous hTERT/E6/E7 cells, TMZ with or without plasma discharge tube electro-magnetic field", "type": "cell-based", "conditions": "after a single 7-minute treatment with discharge tube, E6/E7 non-tumor cell line", "experimental": "as §1\nas §2, with “cells. […]” for “cells.”"}}, "data": [{"smiles": "Cn1nnc2c(C(N)=O)ncn2c1=O", "note": "[TMZ, Temozolomide]", "values": [{"measurement": "reduction of cell viability of A172 cells", "setting": "A172 glioblastoma cells; 7 minutes electro-magnetic field exposure at 1 mm, then 250 μM TMZ", "value": 76, "unit": "%"}, {"measurement": "inhibition at 250 µM", "setting": "A172 glioblastoma cells; Homo sapiens, A 172, 250 μM TMZ, read-out: cell growth inhibition of A172 cells", "value": 23, "unit": "%"}, {"measurement": "increase of anti-cancer efficacy of TMZ (factor)", "setting": "A172 glioblastoma cells; after a single 7-minute treatment with discharge tube, A172", "value": "> 2"}, {"measurement": "inhibition of the growth of U87 cells (killing effect)", "setting": "U87 glioblastoma cells; 1, 4 or 7 minute electro-magnetic field exposure at 1 mm, then 320 μM TMZ", "value": "~80", "unit": "%"}, {"measurement": "inhibition of the growth of U87 cells", "setting": "U87 glioblastoma cells; 1 minute electro-magnetic field exposure", "value": 24, "unit": "%"}, {"measurement": "inhibition of the growth of U87 cells", "setting": "U87 glioblastoma cells; 4 minute electro-magnetic field exposure", "value": 38, "unit": "%"}, {"measurement": "inhibition of the growth of U87 cells", "setting": "U87 glioblastoma cells; 7 minute electro-magnetic field exposure", "value": 72, "unit": "%"}, {"measurement": "increase in U87 cell death compared with non-cancerous cells", "setting": "U87 glioblastoma cells; 7 minutes electro-magnetic field exposure prior to TMZ treatment (FIG. 7)", "value": 43, "unit": "%"}, {"measurement": "inhibition at 180 µM", "setting": "U87 glioblastoma cells; Homo sapiens, U-87 MG, 72 h, 180 μM TMZ only, no electro-magnetic field, 72 h, read-out: growth inhibition / cell death of U87 cells", "value": 21, "unit": "%"}, {"measurement": "higher cell death in U87 cells compared to E6/E7 cells", "setting": "U87 glioblastoma cells; TMZ-only treatment (FIG. 7)", "value": 12, "unit": "%"}, {"measurement": "increase of anti-cancer efficacy of TMZ (factor)", "setting": "U87 glioblastoma cells; after a single 7-minute treatment with discharge tube, U87", "value": "> 2"}, {"measurement": "killing effect on U87 cells", "setting": "U87 glioblastoma cells; electro-magnetic field exposure at 5 mm (so in the source); FIG. 4E) plus TMZ", "value": 60, "unit": "%"}, {"measurement": "increase of anti-cancer efficacy of TMZ", "setting": "hTERT/E6/E7 cells", "value": "no significant effect"}]}]}
